The values below come from PubChem BioAssay AID1224921 (Broad Institute, 2016).

Each structure is given as a SMILES string. Calls of active or inactive are those of the source. The rule behind the calls is not given here.

The AC50 is the midpoint of the concentration-response curve, whichever way the signal moves.

For this test, the system named is Clostridioides difficile clinical isolate growth, OD600, 24 h. The test can be described thus: inhibitors of Clostridioides difficile proliferation – 4-point retest, confirmation (AID 1224921).
For the molecule `COc1ccc(C(=O)Nc2ccc3c(c2)OC[C@@H](C)N(C(C)=O)C[C@H](C)[C@@H](OC)CN(C)C3=O)cc1`, the AC50 was > 60 µM (inactive).

For the molecule `COc1cccc(C#Cc2cnc3c(c2)C(=O)N([C@H](C)CO)C[C@H](C)[C@@H](CN(C)C)O3)c1`, the concentration at half-maximal activity (AC50) is 33.2 µM.

As for `C[C@@H]1CCCCO[C@H](CN(C)Cc2ccc3c(c2)OCO3)[C@@H](C)CN([C@@H](C)CO)C(=O)c2cc(NS(=O)(=O)c3cccs3)ccc2O1`, the AC50 is 13.8 µM.

As to `C[C@@H]1CN([C@@H](C)CO)C(=O)c2cccc(NC(=O)Nc3ccccc3)c2O[C@@H]1CN(C)Cc1ccc(C(F)(F)F)cc1`, the AC50 is 8.02 µM.

In the case of `COc1ccccc1CNC(=O)C[C@H]1CC[C@@H]2[C@H](COC[C@H](O)CN2C(=O)Nc2ccc(C(F)(F)F)cc2)O1`, the AC50 is 1.04 µM.

`CO[C@H](CN(C)S(=O)(=O)c1cn(C)cn1)[C@H](C)CN(C(=O)Nc1ccc(C(F)(F)F)cc1)[C@H](C)CO`: the AC50 was 6.25 µM.

On to `CO[C@H](CN(C)Cc1cc(F)ccc1F)[C@H](C)CN(C(=O)Nc1ccc(C(F)(F)F)cc1)[C@H](C)CO`, for which the AC50 was 10.3 µM.

For the molecule `CO[C@H](CN(C)Cc1cc(F)ccc1F)[C@@H](C)CN(C(=O)Nc1ccc(C(F)(F)F)cc1)[C@H](C)CO`, the AC50 is 6.43 µM.

Turning to `C[C@@H]1CCCCO[C@H](CN(C)CC2CCCCC2)[C@H](C)CN([C@@H](C)CO)C(=O)c2cc(NC(=O)Nc3ccc(C(F)(F)F)cc3)ccc2O1`, the AC50 is 10.4 µM.

`C[C@H](NC(=O)C[C@H]1CC[C@H]2[C@@H](COC[C@@H](O)CN2C(=O)Nc2cc(Cl)cc(Cl)c2)O1)c1ccccc1`: the AC50 was 17.9 µM.

Regarding `COc1ccccc1CNC(=O)C[C@H]1CC[C@H]2[C@@H](COC[C@H](O)CN2C(=O)Nc2ccc(C(F)(F)F)cc2)O1`, the AC50 was 12 µM.

Consider `CCC(=O)N[C@H]1CC[C@@H](CCNC(=O)Nc2ccc(C(F)(F)F)cc2)O[C@H]1CO`, for which the concentration at half-maximal activity (AC50) is 2.41 µM.

Consider `CNC[C@H]1OCCCC[C@@H](C)Oc2ccc(NC(=O)Nc3ccc(C(F)(F)F)cc3)cc2C(=O)N([C@H](C)CO)C[C@H]1C`, for which the concentration at half-maximal activity (AC50) was 15.4 µM.

Consider `C[C@@H]1CN([C@@H](C)CO)C(=O)c2c(c3ccccc3n2C)-c2ccccc2CO[C@@H]1CN(C)Cc1ccncc1`, for which the AC50 is > 60 µM (inactive).

Take `C[C@@H]1CN([C@H](C)CO)C(=O)c2cc(NC(=O)Nc3cccc4ccccc34)ccc2O[C@@H](C)CCCCO[C@@H]1CN(C)CC1CCCCC1`: the AC50 is > 60 µM (inactive).

In the case of `C[C@H](CO)N1C[C@H](C)[C@H](CN(C)CC2CCCCC2)OCCCC[C@H](C)Oc2ccc(NC(=O)Nc3cccc4ccccc34)cc2C1=O`, the AC50 is 29 µM.

For the molecule `COc1ccccc1C#Cc1ccc([C@H]2[C@@H](C#N)N(C(=O)C3CCCCC3)[C@H]2CO)cc1`, the AC50 was 30 µM.

For `CCCNC(=O)Nc1ccc2c(c1)C(=O)N(C)C[C@@H](OC)[C@@H](C)CN(C)[C@H](C)CO2`, the AC50 was > 60 µM (inactive).

Consider `CO[C@H]1CN(C)C(=O)c2ccc(NC(=O)Nc3ccccc3)cc2OC[C@@H](C)NC[C@@H]1C`, for which the AC50 was > 60 µM (inactive).

On to `CO[C@@H]1CN(C)C(=O)c2cc(NC(=O)Nc3ccc(C(F)(F)F)cc3)ccc2OC[C@H](C)NC[C@H]1C`, for which the AC50 is 17.8 µM.

On to `Cc1noc(C)c1NC(=O)Nc1cccc2c1O[C@H](CN(C)Cc1ccc(Oc3ccccc3)cc1)[C@H](C)CN([C@@H](C)CO)C2=O`, for which the AC50 was 9.38 µM.

On to `CO[C@H]1CN(C)C(=O)c2ccc(NC(=O)Nc3ccc(Cl)c(Cl)c3)cc2OC[C@H](C)NC[C@H]1C`, for which the AC50 was 9.83 µM.

For the molecule `C[C@@H]1CCCCO[C@@H](CN(C)C)[C@H](C)CN([C@H](C)CO)C(=O)c2cc(NC(=O)Nc3ccc(C(F)(F)F)cc3)ccc2O1`, the AC50 is 17.5 µM.

For `CNC(=O)C[C@@H]1CC[C@@H]2[C@H](COC[C@H](O)CN2C(=O)Nc2ccc(Cl)c(Cl)c2)O1`, the half-maximal activity concentration (AC50) is 3.06 µM.

With `CC(=O)N[C@H]1CC[C@H](CCNC(=O)Nc2ccc(C(F)(F)F)cc2)O[C@H]1CO`, the AC50 was 4.52 µM.

Regarding `CO[C@H]1CN(C)C(=O)c2cc(NC(=O)Nc3ccc(Cl)c(Cl)c3)ccc2OC[C@H](C)NC[C@H]1C`, the AC50 is 9.51 µM.

Turning to `O=C(C[C@H]1CC[C@@H]2[C@H](COC[C@@H](O)CN2C(=O)Nc2ccc(Cl)c(Cl)c2)O1)NCc1ccc(Cl)cc1`, the AC50 is 3.67 µM.

For the molecule `O=C(C[C@@H]1CC[C@H]2[C@@H](COC[C@H](O)CN2C(=O)Nc2ccc(Cl)c(Cl)c2)O1)NCc1ccc(F)cc1`, the AC50 is 1.3 µM.

As to `C[C@H](CO)N1C[C@H](C)[C@H](CN(C)C(=O)Nc2ccc(C(F)(F)F)cc2)Oc2c(NC(=O)Nc3ccccc3)cccc2C1=O`, the AC50 is > 60 µM (inactive).

With `COc1cccc(C#Cc2ccc([C@H]3[C@@H](CO)N(C(=O)C4CCCCC4)[C@H]3C#N)cc2)c1`, the AC50 was 19 µM.

As to `O=C(C[C@@H]1CC[C@@H]2[C@H](COC[C@@H](O)CN2C(=O)Nc2ccc(C(F)(F)F)cc2)O1)NC1Cc2ccccc2C1`, the AC50 was 2.27 µM.

For the molecule `COc1ccccc1C#Cc1ccc([C@H]2[C@@H](CO)N(C(=O)C3CCCCC3)[C@H]2C#N)cc1`, the concentration at half-maximal activity (AC50) was 34.2 µM.

In the case of `CO[C@@H](CN(C)C(=O)C1CCOCC1)[C@@H](C)CN(C(=O)Nc1ccc(C(F)(F)F)cc1)[C@H](C)CO`, the AC50 is 6.17 µM.

Regarding `O=C(C[C@H]1CC[C@H]2[C@@H](COC[C@@H](O)CN2C(=O)Nc2ccc(Cl)c(Cl)c2)O1)NCc1ccccc1`, the concentration at half-maximal activity (AC50) is 3.72 µM.

Take `CO[C@@H]1CN(C)C(=O)c2cc(NC(=O)C3CCCC3)ccc2OC[C@@H](C)N(C(=O)Nc2ccc(C(F)(F)F)cc2)C[C@H]1C`: the AC50 was 26.6 µM.

As for `C/C=C/c1ccc2c(c1)O[C@H](CN(C)C(=O)c1ccc(F)cc1)[C@H](C)CN([C@H](C)CO)S2(=O)=O`, the AC50 was > 60 µM (inactive).

As for `CCNC(=O)C[C@H]1CC[C@H]2[C@@H](COC[C@@H](O)CN2C(=O)Nc2ccc(Cl)c(Cl)c2)O1`, the AC50 is 3.9 µM.

`CCC(=O)N[C@H]1CC[C@H](CCNC(=O)Nc2ccc(C(F)(F)F)cc2)O[C@@H]1CO`: the AC50 was 3.05 µM.

Consider `O=C(C[C@H]1CC[C@@H]2[C@H](COC[C@@H](O)CN2C(=O)Nc2ccc(Cl)c(Cl)c2)O1)NC1CCC1`, for which the AC50 was 8.68 µM.

On to `COCC(=O)N1C[C@H](C)[C@H](OC)CN(C)C(=O)c2ccc(NC(=O)NC(C)C)cc2OC[C@H]1C`, for which the AC50 was > 60 µM (inactive).

With `CO[C@@H](CN(C)C(=O)C1CCOCC1)[C@@H](C)CN(C(=O)Nc1ccc(C(F)(F)F)cc1)[C@@H](C)CO`, the AC50 was 3.66 µM.

Consider `O=C(C[C@H]1CC[C@H]2[C@@H](COC[C@@H](O)CN2C(=O)Nc2ccc(C(F)(F)F)cc2)O1)NCC1CC1`, for which the AC50 is 1.18 µM.

Turning to `CNC[C@@H]1OCCCC[C@H](C)Oc2ccc(NC(=O)Nc3ccc(C(F)(F)F)cc3)cc2C(=O)N([C@H](C)CO)C[C@H]1C`, the AC50 was 19.4 µM.

As for `C[C@@H]1CN([C@H](C)CO)C(=O)c2cc(C#CCc3ccccc3)cnc2O[C@H]1CN(C)CC1CCCC1`, the AC50 was 31 µM.

`C[C@@H]1CCCCO[C@@H](CN(C)CC2CCCCC2)[C@H](C)CN([C@H](C)CO)C(=O)c2cc(NC(=O)Nc3ccc(C(F)(F)F)cc3)ccc2O1`: the half-maximal activity concentration (AC50) is 16.2 µM.

Regarding `C[C@H]1CN([C@@H](C)CO)C(=O)CCCn2nncc2CO[C@@H]1CN(C)C(=O)Nc1ccc(C(F)(F)F)cc1`, the AC50 is 17.7 µM.

As for `C[C@H](CO)N1C[C@H](C)[C@H](CN(C)CC2CCCCC2)OCCCC[C@H](C)Oc2ccc(NC(=O)Nc3ccc(C(F)(F)F)cc3)cc2C1=O`, the AC50 is 10.9 µM.

As for `C[C@@H]1CN([C@@H](C)CO)C(=O)Cc2cc(N(C)C)ccc2O[C@H]1CN(C)Cc1ccc(C(F)(F)F)cc1`, the AC50 is 29.1 µM.

In the case of `CNC(=O)C[C@@H]1CC[C@H]2[C@@H](COC[C@H](O)CN2C(=O)Nc2ccc(Cl)c(Cl)c2)O1`, the AC50 was 7.63 µM.

Take `O=C(C[C@@H]1CC[C@H]2[C@@H](COC[C@@H](O)CN2C(=O)Nc2ccc(Cl)c(Cl)c2)O1)NCc1ccc(Cl)c(Cl)c1`: the AC50 is less than 0.5 µM.

On to `CO[C@@H]1CN(C)C(=O)c2cc(NC(=O)Nc3ccc(Cl)c(Cl)c3)ccc2OC[C@@H](C)NC[C@@H]1C`, for which the AC50 is 4.25 µM.

With `CCC(=O)N[C@@H]1CC[C@@H](CCNC(=O)Nc2ccc(C(F)(F)F)cc2)O[C@H]1CO`, the concentration at half-maximal activity (AC50) was 2.75 µM.

For the molecule `O=C(C[C@@H]1CC[C@H]2[C@@H](COC[C@@H](O)CN2C(=O)Nc2ccc(Cl)c(Cl)c2)O1)NCc1ccc(F)cc1`, the AC50 was 1.92 µM.

For the molecule `CO[C@@H](CN(C)C(=O)C1CC1)[C@@H](C)CN(C(=O)Nc1ccc(C(F)(F)F)cc1)[C@@H](C)CO`, the concentration at half-maximal activity (AC50) is 3.31 µM.

On to `C[C@@H]1CN([C@@H](C)CO)S(=O)(=O)c2ccc(/C=C/c3ccccc3)cc2O[C@H]1CN(C)Cc1ccc(C(=O)O)cc1`, for which the half-maximal activity concentration (AC50) is 1.35 µM.

Regarding `COc1ccccc1S(=O)(=O)N(C)C[C@H]1OCc2ccccc2-c2c(n(C)c3ccccc23)C(=O)N([C@H](C)CO)C[C@@H]1C`, the AC50 was > 60 µM (inactive).

For `COc1ccc(CN(C)C[C@@H]2OCCCC[C@H](C)Oc3ccc(NC(=O)Nc4ccc(C(F)(F)F)cc4)cc3C(=O)N([C@H](C)CO)C[C@@H]2C)cc1`, the AC50 was > 60 µM (inactive).

For `O=C(C[C@H]1CC[C@H]2[C@@H](COC[C@@H](O)CN2C(=O)Nc2ccc(C(F)(F)F)cc2)O1)NC1Cc2ccccc2C1`, the AC50 was 7.54 µM.

In the case of `O=C(C[C@@H]1CC[C@@H]2[C@H](COC[C@H](O)CN2C(=O)Nc2ccc(Cl)c(Cl)c2)O1)NCc1ccc(F)cc1`, the AC50 was 0.968 µM.

On to `N#C[C@H]1[C@H](c2ccc(C#Cc3cccc(F)c3)cc2)[C@@H](CO)N1C(=O)C1CCC1`, for which the AC50 is > 16 µM (inactive).

As for `N#C[C@H]1[C@H](c2ccc(C#Cc3ccc(F)cc3)cc2)[C@@H](CO)N1C(=O)C1CCCC1`, the AC50 is > 70 µM (inactive).

For `CO[C@H](CN(C)S(=O)(=O)c1cn(C)cn1)[C@@H](C)CN(C(=O)Nc1ccc(C(F)(F)F)cc1)[C@H](C)CO`, the AC50 is 2.16 µM.

For the molecule `O=C(N[C@H]1CC[C@H](CCNS(=O)(=O)c2ccc(Cl)cc2)O[C@H]1CO)c1ccccn1`, the AC50 is > 60 µM (inactive).

As to `CCNC(=O)C[C@H]1CC[C@@H]2[C@H](COC[C@H](O)CN2C(=O)Nc2ccc(Cl)c(Cl)c2)O1`, the AC50 is 3.02 µM.

As for `N#C[C@H]1[C@@H](c2ccc(C#CC3CCCC3)cc2)[C@H](CO)N1C(=O)Nc1ccc(F)cc1`, the AC50 is > 60 µM (inactive).

For the molecule `CO[C@H](CN(C)C(=O)C1CC1)[C@H](C)CN(C(=O)Nc1ccc(C(F)(F)F)cc1)[C@H](C)CO`, the AC50 was 2.98 µM.
